# From PMC12299463, “Cladolosides of Groups S and T: Triterpene Glycosides from the Sea Cucumber Cladolabes schmeltzii with Unique Sulfation; Human Breast Cancer Cytotoxicity and QSAR” (Marine Drugs, 2025)
# Structures can show the parent of a compound that is named as a salt. Where two headings read alike, the source gives them in different places.
# Columns and labels:
# [1] = test system: human erythrocytes; assay: Hemolytic activity against human erythrocytes; format: cell-based; conditions: for ED50, Erythrocytes (hemolytic activity): 1 h at 37 °C
# Experimental: A total of 450 g of human blood (B(III) Rh+) was used to obtain erythrocytes by centrifuging three times for 5 min with phosphate-buffered saline (PBS) (pH 7.4) at 4 °C on a centrifuge LABOFUGE 400R (Heraeus, Hanau, Germany). Ice-cold PBS (pH 7.4) was used for resuspension of erythrocyte residue to a final optical density of 1.5 at 700 nm. Then, 20 µL of tested compound solutions or control (cucumarioside A0-1 [15]) were added to 180 µL of erythrocyte suspension in V-bottom 96-well plates and incubated for 1 h at 37 °C. After centrifugation (900 g, 10 min, laboratory centrifuge LMC-3000 (Biosan, Riga, Latvia)), 100 µL of supernatant was transferred into new flat plates. The values of erythrocyte lysis were measured on microplate photometer Multiskan FC (Thermo Fisher Scientific, Waltham, MA, USA) at λ = 570 nm as hemoglobin concentration in supernatant. […] All the experiments were carried out in triple repetitions, p < 0.05.
# [2] = in vitro; format: cell-based, human; conditions: human
# [3] = test system: MCF-7 human breast cancer cells; assay: cells; format: cell-based;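 note: IC50 values, including those behind the selectivity ratio, derive from formazan absorbance at 570 nm, tested in triplicate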
# [4] = test system: T-47D human breast cancer cells; assay: cells; format: cell-based; conditions: for IC50: read-out: Cytotoxicity, IC50, T-47D; for Selectivity Index (SI), T-47D: ratio of IC50 for healthy (MCF-10A) and T-47D cells;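 for all read-outs here: cell viability read as absorbance of formazan dye at 570 nm, each experiment run in triplicate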
# [5] = test system: MDA-MB-231 triple-negative breast cancer cells; assay: cells; format: cell-based, human; conditions: for Selectivity Index (SI), MDA-MB-231: ratio of IC50 for healthy (MCF-10A) and MDA-MB-231 cells
# [6] = test system: MCF-10A non-tumor mammary epithelial cell line; assay: in vitro; format: cell-based, human; conditions: MTT assay, MCF-10A; read-out: Cytotoxicity, IC50, MCF-10A
# [7] = Homo sapiens, MCF7, read-out: Cytotoxicity, IC50, MCF-7
# [8] = Homo sapiens, MDA-MB-231, read-out: Cytotoxicity, IC50, MDA-MB-231
# [9] = MTT assay, MCF-7, read-out: Cytotoxicity, IC50, MCF-7
# [10] = MTT assay, MDA-MB-231, read-out: Cytotoxicity, IC50, MDA-MB-231
Structure (SMILES),"Hemolytic (membranolytic) activity, in words [1]","ED50, Erythrocytes (hemolytic activity) [1] [µM]",IC50 [2] [µM],"IC50 [3, 7] [µM]","IC50 ([4]; Homo sapiens, T47D) [µM]","IC50 [5, 8] [µM]","Selectivity Index (SI), T-47D [4]","Selectivity Index (SI), MDA-MB-231 [5]","ED50, Erythrocytes (hemolytic activity) ([1]; listed as cladoloside A3 (7)) [µM]",IC50 [6] [µM],"IC50 [3, 9] [µM]","IC50 ([4]; MTT assay, T-47D) [µM]","IC50 [5, 10] [µM]","Hemolytic (membranolytic) activity, in words ([1]; listed as M1 (35))","Hemolytic (membranolytic) activity, in words ([1]; listed as cladoloside M1 (35))"
"CO[C@@H]1[C@@H](O)[C@H](O[C@@H]2[C@@H](O)[C@H](O[C@H]3[C@H](O)[C@@H](O)[C@H](O[C@H]4[C@H](O[C@H]5CC[C@]6(C)C7=CCC89C(=O)O[C@@](C)([C@@H](CCC(C)C)OC(C)=O)[C@H]8[C@@H](OC(C)=O)C[C@@]9(C)[C@@H]7CC[C@H]6C5(C)C)OC[C@@H](O[C@@H]5OC[C@@H](O)[C@H](O)[C@H]5O)[C@@H]4O)O[C@@H]3C)OC[C@H]2O)O[C@H](COS(=O)(=O)O)[C@H]1O (stereo partly drawn) [Cladoloside S1 (2), 3β-O-{6-O-sodium sulfate-3-O-methyl-β-D-glucopyranosyl-(1→3)-β-D-xylopyranosyl-(1→4)-β-D-quinovopyranosyl-(1→2)-[(1→4)-β-D-xylopyranosyl]-β-D-xylopyranosyl}-16S,22R-diacetoxyholost-9-en]",moderately active,4.78 ± 0.30,> 20,> 20,> 20,> 20,,,,,,,,,
"C=C(C)CC[C@@H](OC(C)=O)[C@]1(C)OC(=O)C23CC=C4[C@@H](CC[C@H]5C(C)(C)[C@@H](O[C@@H]6OC[C@@H](O[C@@H]7OC[C@@H](O)[C@H](O)[C@H]7O)[C@H](O)[C@H]6O[C@@H]6O[C@H](C)[C@@H](O[C@@H]7OC[C@@H](O)[C@H](O[C@@H]8O[C@H](COS(=O)(=O)O)[C@@H](O)[C@H](OC)[C@H]8O)[C@H]7O)[C@H](O)[C@H]6O)CC[C@]45C)[C@]2(C)C[C@H](OC(C)=O)[C@@H]31 (stereo partly drawn) [Cladoloside S (1), 3β-O-{6-O-sodium sulfate-3-O-methyl-β-D-glucopyranosyl-(1→3)-β-D-xylopyranosyl-(1→4)-β-D-quinovopyranosyl-(1→2)-[(1→4)-β-D-xylopyranosyl]-β-D-xylopyranosyl}-16S,22R-diacetoxyholosta-9,25-diene]",moderately active,3.40 ± 0.25,> 20,> 20,14.8 ± 0.71,13.2 ± 1.08,>1.35,>1.51,,,,,,,
"C=C(C)CCC[C@]1(C)OC(=O)C23CC=C4[C@@H](CC[C@H]5C(C)(C)[C@@H](O[C@@H]6OC[C@@H](O)[C@H](O)[C@H]6O[C@@H]6O[C@H](C)[C@@H](O[C@@H]7OC[C@@H](O)[C@H](O[C@@H]8O[C@H](CO)[C@@H](O)[C@H](OC)[C@H]8O)[C@H]7O)[C@H](O)[C@H]6O)CC[C@]45C)[C@]2(C)C[C@H](OC(C)=O)[C@@H]31 (stereo partly drawn) [A3 (7), cladoloside A3]",low hemolytic activity,7.58 ± 0.69,,,,,,,7.58,> 20,> 20,> 20,> 20,,
"C=C(C)CCC[C@]1(C)OC(=O)C23CC=C4[C@@H](CC[C@H]5C(C)(C)[C@@H](O[C@@H]6OC[C@@H](O[C@@H]7O[C@H](CO)[C@@H](O)[C@H](O[C@@H]8O[C@H](COS(=O)(=O)[O-])[C@@H](O)[C@H](OC)[C@H]8O)[C@H]7O)[C@H](O)[C@H]6O[C@@H]6O[C@H](C)[C@@H](O[C@@H]7OC[C@@H](O)[C@H](O)[C@H]7O)[C@H](O)[C@H]6O)CC[C@]45C)[C@]2(C)CC(=O)[C@@H]31.[Na+] (stereo partly drawn) [Cladoloside J1 (30), Cladoloside J1]",,1.10 ± 0.10,,,,,,>3.24,,> 20,> 20,> 20,6.18 ± 0.54,,
"C=C(C)CCC[C@]1(C)OC(=O)C23CC=C4[C@@H](CC[C@H]5C(C)(C)[C@@H](O[C@@H]6OC[C@@H](O[C@@H]7O[C@H](CO)[C@@H](O)[C@H](O[C@@H]8O[C@H](CO)[C@@H](O)[C@H](OC)[C@H]8O)[C@H]7O)[C@H](O)[C@H]6O[C@@H]6O[C@H](C)[C@@H](O[C@@H]7O[C@H](CO)[C@@H](O)[C@H](O[C@@H]8O[C@H](CO)[C@@H](O)[C@H](OC)[C@H]8O)[C@H]7O)[C@H](O)[C@H]6O)CC[C@]45C)[C@]2(C)CC(=O)[C@@H]31 (stereo partly drawn) [Cladoloside M1 (35), cladoloside M1]",,0.08 ± 0.01,,,,,0.57,1.94,,9.81 ± 0.86,> 20,17.1 ± 1.52,5.05 ± 0.38,strong hemolytics,most active compound
